Tests used:
[1] = typical gastric pH range; cited from earlier work
[2] = cited from earlier work
healthy dogs = settings: 0.05 or 0.1 mg/kg orally three times per week, 10 weeks; cited from earlier work
[3] = Feline repeat dose toxicokinetic study of oral enteric-coated formulations; type: in vivo; settings: whole blood, cats, oral enteric-coated formulation, Mean; for AUC(0-t): read-out: AUC0-72
Description: This represents a first-in-species repeat dose test toxicokinetic study in cats. Pharmacokinetic sampling was performed after the first and last doses.

[4] = Canine pharmacokinetics of enteric coated formulations at 0.15 mg/kg (T1) and 0.75 mg/kg (T5); type: in vivo; settings: dogs, oral enteric coated formulation; for AUC(0-inf) / AUC(0-t) / Cmax / Tmax / half-life: dog, blood, po
[5] = 0.15 mg/kg, 0.15 mg/kg three times a week, Day 26, whole blood
[6] = 0.15 mg/kg, 0.15 mg/kg, Day 0, whole blood
[7] = 0.45 mg/kg, 0.45 mg/kg three times a week, Day 26, whole blood
[8] = 0.45 mg/kg, 0.45 mg/kg, Day 0, whole blood
[9] = 0.75 mg/kg, 0.75 mg/kg three times a week, Day 26, whole blood
[10] = 0.75 mg/kg, 0.75 mg/kg, Day 0, whole blood
[11] = 0.15 mg/kg, T1 0.15 mg/kg, Arith. Mean
[12] = 0.15 mg/kg, T1 0.15 mg/kg, Median
[13] = 0.75 mg/kg, T5 0.75 mg/kg, Arith. Mean
[14] = 0.75 mg/kg, T5 0.75 mg/kg, Median

CO[C@H]1C[C@@H]2CC[C@@H](C)[C@@](O)(O2)C(=O)C(=O)N2CCCC[C@H]2C(=O)O[C@H]([C@H](C)C[C@@H]2CC[C@@H](O)[C@H](OC)C2)CC(=O)[C@H](C)/C=C(\C)[C@@H](O)[C@@H](OC)C(=O)[C@H](C)C[C@H](C)/C=C/C=C/C=C/1C [rapamycin]
acid stability [1]: rapidly degrades within the typical gastric pH range
solubility in water [2]: poorly soluble in water
clinical side effects and hematological changes (healthy dogs): did not cause significant clinical side effects or abnormal hematological changes
Cmax [3, 5]: 2.26 ng/mL
AUC(0-t) [3, 5]: 54 ng·h/mL
Cmax [3, 6]: 2.85 ng/mL
Tmax [3, 6]: 4 h
AUC(0-t) [3, 6]: 41 ng·h/mL
Cmax [3, 7]: 6.98 ng/mL
Tmax [3, 7]: 2 h
AUC(0-t) [3, 7]: 182 ng·h/mL
Cmax [3, 8]: 4.4 ng/mL
AUC(0-t) [3, 8]: 99.5 ng·h/mL
Cmax [3, 9]: 8.07 ng/mL
Tmax [3, 9]: 2 h
AUC(0-t) [3, 9]: 248 ng·h/mL
Cmax [3, 10]: 7.56 ng/mL
Tmax [3, 10]: 2 h
AUC(0-t) [3, 10]: 135 ng·h/mL
AUC(0-inf) [4, 11]: 42.7 ng·h/mL
AUC(0-t) [4, 11]: 40.8 ng·h/mL
Cmax [4, 11]: 2.23 ng/mL
Tmax [4, 11]: 1.83 h
half-life [4, 11]: 16.4 h
AUC(0-inf) [4, 12]: 38.5 ng·h/mL
AUC(0-t) [4, 12]: 45.2 ng·h/mL
Cmax [4, 12]: 2.17 ng/mL
Tmax [4, 12]: 2 h
half-life [4, 12]: 13.6 h
AUC(0-inf) [4, 13]: 102 ng·h/mL
AUC(0-t) [4, 13]: 111 ng·h/mL
Cmax [4, 13]: 4.41 ng/mL
Tmax [4, 13]: 2.17 h
half-life [4, 13]: 20.2 h
AUC(0-inf) [4, 14]: 98.4 ng·h/mL
AUC(0-t) [4, 14]: 96.9 ng·h/mL
Cmax [4, 14]: 3.14 ng/mL
Tmax [4, 14]: 2 h
half-life [4, 14]: 20.5 h
kelim ([4]; T1 0.15 mg/kg, Arith. Mean): 0.0596 h⁻¹
kelim ([4]; T1 0.15 mg/kg, Median): 0.0627 h⁻¹
kelim ([4]; T5 0.75 mg/kg, Arith. Mean): 0.0357 h⁻¹
kelim ([4]; T5 0.75 mg/kg, Median): 0.0338 h⁻¹

From patent US12599590B2 (TriviumVet DAC, priority 2019, dated 2026)
